Experimental data reported in US6737383B1, “Herbicidal oxadiazolidines” (priority 1999, dated 2004).

Columns and labels:
[1] = test system: bedstraw; experiment: Test B pre/postemergence bedstraw; format: in vivo, Galium aparine; conditions: for Bedstraw plant response rating: 10 is complete control
How it was run: (§1)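 Test chemicals in a non-phytotoxic solvent mixture with surfactant were sprayed preemergence onto planted seeds and postemergence onto plants 2 to 18 cm tall (1- to 4-leaf stage). After twelve to sixteen days in a greenhouse, injury was visually rated against untreated controls from 0 (no effect) to 10 (complete control).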

[2] = test system: blackgrass; experiment: Test B pre/postemergence blackgrass; format: in vivo, Alopecurus myosuroides
How it was run: as §1

[3] = test system: surinam grass; experiment: Test B pre/postemergence surinam grass; format: in vivo, Brachiaria decumbens
How it was run: as §1

[4] = test system: cocklebur; experiment: Test B pre/postemergence cocklebur; format: in vivo, Xanthium strumarium
How it was run: as §1

[5] = test system: corn; experiment: Test B pre/postemergence corn; format: in vivo, Zea mays
How it was run: as §1

[6] = test system: crabgrass; experiment: Test B pre/postemergence crabgrass; format: in vivo, Digitaria sanguinalis
How it was run: as §1

[7] = test system: giant foxtail; experiment: Test B pre/postemergence giant foxtail; format: in vivo, Setaria faberii
How it was run: as §1

[8] = test system: morningglory; experiment: Test B pre/postemergence morningglory; format: in vivo, Ipomoea hederacea
How it was run: as §1

[9] = test system: pigweed; experiment: Test B pre/postemergence pigweed; format: in vivo, Amaranthus retroflexus
How it was run: as §1

[10] = test system: rape; experiment: Test B pre/postemergence rape; format: in vivo, Brassica napus
How it was run: as §1

[11] = test system: soybean; experiment: Test B pre/postemergence soybean; format: in vivo, Glycine max
How it was run: as §1

[12] = test system: sugar beet; experiment: Test B pre/postemergence sugar beet; format: in vivo, Beta vulgaris
How it was run: as §1

[13] = test system: velvetleaf; experiment: Test B pre/postemergence velvetleaf; format: in vivo, Abutilon theophrasti
How it was run: as §1

[14] = test system: wheat; experiment: Test B pre/postemergence wheat; format: in vivo, Triticum aestivum
How it was run: as §1

[15] = test system: wild oat; experiment: Test B pre/postemergence wild oat; format: in vivo, Avena fatua
How it was run: as §1

[16] = test system: purple nutsedge; experiment: Test B pre/postemergence purple nutsedge; format: in vivo, Cyperus rotundus
How it was run: as §1

[17] = Preemergence, Rate 62 g/ha, scale of 0 to 10 where 0 is no effect and 10 is complete control
[18] = Postemergence, Rate 62 g/ha, scale of 0 to 10, 0 is no effect, 10 is complete control
[19] = Postemergence, Rate 125 g/ha, scale 0 to 10, 0 is no effect, 10 is complete control
[20] = Postemergence, Rate 250 g/ha, scale 0 to 10
[21] = Postemergence, Rate 500 g/ha, scale 0 to 10, 0 is no effect, 10 is complete control
[22] = Preemergence, Rate 125 g/ha, scale 0 to 10, 0 is no effect, 10 is complete control
[23] = Preemergence, Rate 250 g/ha, scale 0 to 10, 0 is no effect, 10 is complete control
[24] = Preemergence, Rate 500 g/ha, scale of 0 to 10 where 0 is no effect and 10 is complete control

`COC(=O)CCCn1c(=O)on(C(=O)N(c2ccc(F)cc2F)C(C)C)c1=O` [Compound 513] was tested, and the “Bedstraw plant response rating” value ([1]; Postemergence, Rate 62 g/ha, scale of 0 to 10, 0 is no effect) was 6, the “Plant response rating, Bedstraw” value [1, 17] was 0 and the “Bedstraw plant response rating” value ([1]; Preemergence, Rate 250 g/ha, scale 0 to 10, 0 is no effect) was 0. The “Bedstraw plant response rating” value ([1]; Preemergence, Rate 500 g/ha, scale 0 to 10, 0 is no effect) was 4, the “Blackgrass plant response rating” value [2, 18] was 4 and the “Blackgrass plant response rating” value [2, 19] was 4. The “Blackgrass plant response rating” value [2, 20] was 8, the “Plant response rating, Blackgrass” value [2, 21] was 8 and the “Plant response rating, Blackgrass” value [2, 17] was 1. The “Blackgrass plant response rating” value [2, 22] was 4, the “Blackgrass plant response rating” value [2, 23] was 4 and the “Blackgrass plant response rating” value [2, 24] was 10. For the same molecule, the “B. signalgrass plant response rating” value [3, 18] was 0, the “B. signalgrass plant response rating” value [3, 19] was 3 and the “B. signalgrass plant response rating” value ([3]; Postemergence, Rate 250 g/ha, scale 0 to 10, 0 no effect, 10 complete control) was 6. For the same molecule, the “Plant response rating, B. signalgrass” value [3, 21] was 8, the “Plant response rating, B. signalgrass” value [3, 17] was 0 and the “B. signalgrass plant response rating” value [3, 22] was 0. For the same molecule, the “B. signalgrass plant response rating” value [3, 23] was 5, the “B. signalgrass plant response rating” value ([3]; Preemergence, Rate 500 g/ha, scale 0 to 10, 0 is no effect, 10 is complete control) was 9 and the “Cocklebur plant response rating” value [4, 18] was 3. The “Cocklebur plant response rating” value [4, 19] was 3, the “Cocklebur plant response rating” value [4, 20] was 6 and the “Plant response rating, Cocklebur” value [4, 21] was 7. For the same molecule, the “Plant response rating, Cocklebur” value [4, 17] was 0, the “Cocklebur plant response rating” value [4, 22] was 0 and the “Cocklebur plant response rating” value [4, 23] was 0. For the same molecule, the “Cocklebur plant response rating” value [4, 24] was 0, the “Corn plant response rating” value [5, 18] was 0 and the “Corn plant response rating” value [5, 19] was 0. The “Corn plant response rating” value [5, 20] was 0, the “Plant response rating, Corn” value [5, 21] was 3 and the “Plant response rating, Corn” value [5, 17] was 0. The “Corn plant response rating” value [5, 22] was 0, the “Corn plant response rating” value [5, 24] was 4 and the “Crabgrass plant response rating” value [6, 18] was 1. For the same molecule, the “Crabgrass plant response rating” value [6, 19] was 4, the “Crabgrass plant response rating” value [6, 20] was 6 and the “Plant response rating, Crabgrass” value [6, 21] was 9. For the same molecule, the “Plant response rating, Crabgrass” value [6, 17] was 4, the “Crabgrass plant response rating” value [6, 22] was 4 and the “Crabgrass plant response rating” value [6, 24] was 5. The “Giant foxtail plant response rating” value [7, 18] was 1, the “Giant foxtail plant response rating” value [7, 19] was 5 and the “Plant response rating, Giant foxtail” value [7, 21] was 8. The “Plant response rating, Giant foxtail” value [7, 17] was 2, the “Giant foxtail plant response rating” value [7, 22] was 6 and the “Giant foxtail plant response rating” value [7, 24] was 10. For the same molecule, the “Morningglory plant response rating” value [8, 18] was 3, the “Morningglory plant response rating” value [8, 19] was 3 and the “Plant response rating, Morningglory” value [8, 21] was 9. The “Plant response rating, Morningglory” value [8, 17] was 0, the “Morningglory plant response rating” value [8, 22] was 0 and the “Morningglory plant response rating” value [8, 24] was 3. For the same molecule, the “Redroot pigweed plant response rating” value [9, 18] was 3, the “Redroot pigweed plant response rating” value [9, 19] was 6 and the “Plant response rating, Redroot pigweed” value [9, 21] was 7. For the same molecule, the “Plant response rating, Redroot pigweed” value [9, 17] was 7, the “Redroot pigweed plant response rating” value [9, 22] was 7 and the “Redroot pigweed plant response rating” value [9, 24] was 10. The “Rape plant response rating” value [10, 18] was 0, the “Rape plant response rating” value [10, 19] was 4 and the “Plant response rating, Rape” value [10, 21] was 7. The “Plant response rating, Rape” value [10, 17] was 0, the “Rape plant response rating” value [10, 22] was 2 and the “Rape plant response rating” value [10, 24] was 7. The “Soybean plant response rating” value [11, 18] was 1, the “Soybean plant response rating” value [11, 19] was 7 and the “Plant response rating, Soybean” value [11, 21] was 8. For the same molecule, the “Plant response rating, Soybean” value [11, 17] was 0, the “Soybean plant response rating” value [11, 22] was 0 and the “Soybean plant response rating” value [11, 24] was 5. For the same molecule, the “Sugarbeets plant response rating” value [12, 18] was 2, the “Sugarbeets plant response rating” value [12, 19] was 4 and the “Plant response rating, Sugarbeets” value [12, 21] was 7. The “Plant response rating, Sugarbeets” value [12, 17] was 0, the “Sugarbeets plant response rating” value [12, 22] was 0 and the “Sugarbeets plant response rating” value [12, 24] was 0. For the same molecule, the “Velvetleaf plant response rating” value [13, 18] was 3, the “Velvetleaf plant response rating” value [13, 19] was 3 and the “Plant response rating, Velvetleaf” value [13, 21] was 7. The “Plant response rating, Velvetleaf” value [13, 17] was 0, the “Velvetleaf plant response rating” value [13, 22] was 0 and the “Velvetleaf plant response rating” value [13, 24] was 0. For the same molecule, the “Wheat plant response rating” value [14, 18] was 3, the “Wheat plant response rating” value [14, 19] was 5 and the “Plant response rating, Wheat” value [14, 21] was 6. For the same molecule, the “Plant response rating, Wheat” value [14, 17] was 0, the “Wheat plant response rating” value [14, 22] was 2 and the “Wheat plant response rating” value [14, 24] was 7. For the same molecule, the “Wild oats plant response rating” value [15, 18] was 0, the “Wild oats plant response rating” value [15, 19] was 4 and the “Plant response rating, Wild oats” value [15, 21] was 6. The “Plant response rating, Wild oats” value [15, 17] was 3, the “Wild oats plant response rating” value [15, 22] was 3 and the “Wild oats plant response rating” value [15, 24] was 10. The “Nutsedge plant response rating” value [16, 18] was 0, the “Nutsedge plant response rating” value [16, 19] was 0 and the “Plant response rating, Nutsedge” value [16, 21] was 5. For the same molecule, the “Plant response rating, Nutsedge” value [16, 17] was 0, the “Nutsedge plant response rating” value [16, 22] was 0 and the “Nutsedge plant response rating” value [16, 24] was 0.
